Source: patent publication US20260232740A1, “COMBINATIONS COMPRISING VITAMIN B2 AND LACTOBACILLUS RHAMNOSUS” (DSM IP Assets B.V., priority 2022, published 2026)

Legend:
Bifidobacteriaceae = test: Long-term SHIME fermentation (colon model), 16S rRNA gene sequencing: relative abundance of Bifidobacteriaceae in mucus of transverse colon; set-up: species or system human; settings: relative abundance (%), end of three-week treatment vs end of control period (n=3), probiotic 1*1010 CFU/reactor, vitamin B2 10 mg/day, p<0.05
From the text: (§1) The typical reactor setup of the SHIMER, representing the gastrointestinal tract of the adult human, was described by Molly et al. (1993) Applied Microbiology and Biotechnology 39 (2): 254-258. Inoculum preparation, retention time, pH, temperature settings and reactor feed composition were previously described by Possemiers et al. (2004) FEMS Microbiol Ecol. 49 (3): 495-507. Compared to the typical setup of the SHIME, the long-term SHIME experiment used for this example included some adaptations. In one reactor, at first, the conditions of the stomach were simulated, before being changed by the computer to conditions simulating the small intestine. […]
(§2) Samples for quantitative 16S-targeted Illumina sequencing were collected 3×/week during the last week of the control and treatment period. […] The obtained high-resolution proportional phylogenetic information (i.e., proportional abundances (%)) was combined with an accurate quantification of total bacterial cells via flow cytometry to obtain quantitative data at phylum, family, and species level. […] Samples were analyzed on a BD Facsverse (BDBiosciences, Erembodegem, Belgium) using the high-flow-rate setting and bacteria were separated from medium debris and signal noise by applying a threshold level of 200 on the SYTO channel. […]

[1] = tested on: Bifidobacterium adolescentis; test: Long-term SHIME fermentation (colon model), 16S rRNA gene sequencing and flow cytometry: levels of Bifidobacterium adolescentis in lumen of transverse colon; set-up: species or system human; settings: average levels (log cells/mL), end of three-week treatment vs end of control period (n=3), probiotic 1*1010 CFU/reactor, vitamin B2 10 mg/day, p<0.05
From the text: as §1, §2

In the case of Lactobacillus rhamnosus GG, the “abundance of Bifidobacteriaceae compared to the control” value (Bifidobacteriaceae) is reported as “did not significantly change” and the “abundance of Bifidobacterium adolescentis compared to the control” value [1] is reported as “did not significantly change”.
